Data from patent publication US5733913A, “6-Aryl pyrido[2,3-d] pyrimidines and naphthyridines for inhibiting protein tyrosine kinase mediated cellular proliferation” (priority 1995, dated 1998).

How the values were obtained:
[1] = target: T1, mouse PDGF-β receptor tyrosine kinase (Mus musculus, UniProt P05622); test: PDGF receptor tyrosine kinase assay; assay type: biochemical; details: read-out: Inhibition of Protein Tyrosine Kinases, PDGF, IC50
T1 construct: a fragment of DNA that codes for the intracellular tyrosine kinase domain; made in house; host or cells: Sf9 insect cells (baculovirus), cell lysate
Method in brief: (§1)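 Intracellular kinase domains expressed in baculovirus-infected SF9 cells; crude lysate used as enzyme. Inhibitor preincubated 10 min at 25 °C with lysate in pH 7.0 Hepes buffer with 10 mM MnCl2 and poly(Glu-Tyr) 4:1, then γ-32P-ATP (50 μM ATP) added for 10 min at 25 °C. TCA-precipitated 32P on filters counted, no-enzyme background subtracted.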

[2] = target: T2, human FGF-1 (flg) receptor tyrosine kinase (Homo sapiens, UniProt P11362); test: FGF receptor tyrosine kinase assay; assay type: biochemical; details: read-out: Inhibition of Protein Tyrosine Kinases, FGF, IC50
T2 construct: a fragment of DNA that codes for the intracellular tyrosine kinase domain; made in house; host or cells: Sf9 insect cells (baculovirus), cell lysate
Method in brief: as §1

C-src kinase = target: T3, C-src kinase (Homo sapiens, UniProt P12931); test: C-src kinase assay; assay type: biochemical; details: read-out: Inhibition of Protein Tyrosine Kinases, C-src, IC50
T3 construct: made in house; host or cells: baculovirus-infected insect cells
Method in brief: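 Baculovirus-expressed c-src immunopurified on antibody-coated latex beads, assayed in 40 mM Tris pH 7.5, 5 mM MgCl2 with poly GluTyr substrate and 5 μM ATP plus 32P-ATP. Reaction 10 min at room temperature, TCA-quenched, filtered; incorporated label counted by scintillation.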

PDGF receptor = PDGF receptor autophosphorylation in RASMC; assay type: cell-based, rat; details: PDGF-BB 30 ng/mL, read-out: Inhibition of PDGF Stimulated Receptor Auto Phosphorylation (IC50)
Procedure: Rat aorta smooth muscle cells (RASMC) were isolated from the thoracic aorta of rats and explanted according to the method of Ross, J. Cell. […] Cells were grown in Dulbecco's modified Eagle's medium (DMEM, Gibco) containing 10% fetal calf serum (FBS, Hyclone, Logan, Utah), 1% glutamine (Gibco) and 1% penicillin/streptomycin (Gibco). Cells were identified as smooth muscle cells by their "hill and valley" growth pattern and by fluorescent staining with a monoclonal antibody specific for SMC μ-actin (Sigma). RASMC were used between passages 5 and 20 for all experiments. Test compounds were prepared in dimethylsulfoxide (DMSO) in order to achieve consistency in the vehicle and to ensure compound solubility. Appropriate DMSO controls were simultaneously evaluated with the test compounds.
PDGF Receptor Autophosphorylation
RASMC were grown to confluency in 100 mm dishes. Growth medium was removed and replaced with serum-free medium and cells were incubated at 37° C. for an additional 24 hours. Test compounds were then added directly to the medium and cells incubated for an additional 2 hours. After 2 hours, PDGF-BB was added at a final concentration of 30 ng/mL for 5 minutes at 37° C. to stimulated autophosphorylation of the PDGF receptor. Following growth factor treatment, the medium was removed, and cells were washed with cold phosphate-buffered saline and immediately lysed with 1 mL of lysis buffer (50 mM HEPES[pH 7.5], 150 mM NaCl, 10% glycerol, 1% Triton X-100, 1 mM EDTA, 1 mMEGTA, 50 mM NaF, 1 mM sodium orthovanadate, 30 mM p-nitrophenyl phosphate, 10 mM sodium pyrophosphate, 1 mM phenylmethyl sulfonyl fluoride, 10 μg/mL aprotinin, and 10 μg/mL leupeptin). Lysates were centrifuged at 10,000×g for 10 minutes. […] Following the incubation, protein-A-sepharose beads were added for 2 hours with continuous mixing, and immune complexes bound to the beads washed 4 times with 1 mL lysis wash buffer. Immune complexes were solubilized in 30 μL of Laemmli sample buffer and electrophoresed in 4-20% SDS polyacrylamide gels. Following electrophoresis, separated proteins were transferred to nitrocellulose and immunoblotted with anti-phosphotyrosine antiserum. […] IC50 values were generated from the densitometric data.

T3 sequence (P12931 whole entry): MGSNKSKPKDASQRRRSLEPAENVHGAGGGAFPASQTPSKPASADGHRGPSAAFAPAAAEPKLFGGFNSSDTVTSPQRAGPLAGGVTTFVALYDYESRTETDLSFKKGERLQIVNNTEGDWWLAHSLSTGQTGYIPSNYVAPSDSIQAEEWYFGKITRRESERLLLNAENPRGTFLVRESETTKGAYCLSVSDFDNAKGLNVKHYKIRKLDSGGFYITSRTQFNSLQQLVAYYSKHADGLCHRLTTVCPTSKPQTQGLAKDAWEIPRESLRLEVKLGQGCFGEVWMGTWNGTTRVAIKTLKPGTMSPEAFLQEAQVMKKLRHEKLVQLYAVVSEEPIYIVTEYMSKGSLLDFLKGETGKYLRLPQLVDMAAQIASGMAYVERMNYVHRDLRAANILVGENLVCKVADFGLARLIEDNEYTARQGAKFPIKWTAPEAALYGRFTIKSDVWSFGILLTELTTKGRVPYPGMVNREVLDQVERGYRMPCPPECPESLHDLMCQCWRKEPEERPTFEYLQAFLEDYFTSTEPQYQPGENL
T2 sequence (P11362 478-767 limits assumed): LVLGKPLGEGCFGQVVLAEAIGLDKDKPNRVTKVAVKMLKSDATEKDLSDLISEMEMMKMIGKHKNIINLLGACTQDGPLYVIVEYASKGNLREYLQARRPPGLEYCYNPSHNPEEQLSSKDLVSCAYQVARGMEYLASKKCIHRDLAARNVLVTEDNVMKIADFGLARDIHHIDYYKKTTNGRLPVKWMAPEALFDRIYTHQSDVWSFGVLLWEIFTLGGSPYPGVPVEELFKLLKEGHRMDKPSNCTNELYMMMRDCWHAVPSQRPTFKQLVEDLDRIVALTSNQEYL
T1 sequence (P05622 599-961 limits assumed): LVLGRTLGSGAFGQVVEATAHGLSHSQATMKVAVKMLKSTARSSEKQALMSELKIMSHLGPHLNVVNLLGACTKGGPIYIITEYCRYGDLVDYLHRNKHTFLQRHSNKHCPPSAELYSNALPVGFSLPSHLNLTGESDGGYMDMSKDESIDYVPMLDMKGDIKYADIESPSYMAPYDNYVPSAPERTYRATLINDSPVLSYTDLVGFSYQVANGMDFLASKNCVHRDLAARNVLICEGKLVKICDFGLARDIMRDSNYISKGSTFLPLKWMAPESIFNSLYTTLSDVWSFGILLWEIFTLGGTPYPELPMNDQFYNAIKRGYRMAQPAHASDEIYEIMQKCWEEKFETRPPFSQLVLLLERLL

SMILES | IC50 [1] | IC50 [2] | IC50 (C-src kinase) | IC50 (PDGF receptor)
CN(C)CCCN(C)c1ncc2cc(-c3c(Cl)cccc3Cl)c(NC(=O)NC(C)(C)C)nc2n1 [Example 69, 1-tert-Butyl-3-{6-(2,6-dichlorophenyl)-2-[(3-dimethyl-amino-propyl)-methyl-amino]-pyrido[2,3-d]pyrimidin-7-yl}-urea] | 15600 nM | 1960 nM | 4660 nM | 6460 nM
CC(C)NC(=O)Nc1nc2nc(N)ncc2cc1-c1c(Cl)cccc1Cl [Example 89, 1-[2-Amino-6-(2,6-dichlorophenyl)-pyrido[2,3-d]pyrimidin-7-yl]-3-isopropyl-urea] | 857 nM | 111 nM | 36 nM | 1630 nM
CN1CCN(CCCNc2ncc3cc(-c4c(Cl)cccc4Cl)c(NC(=O)Nc4ccccc4)nc3n2)CC1 [Example 51, 1-{6-(2,6-Dichlorophenyl)-2-[3-(4-methyl-piperazin-1-yl)-propylamino]-pyrido[2,3-d]pyrimidin-7-yl}-3-phenyl-urea] | 573 nM | 84 nM | 100 nM | 365 nM
CC(C)(C)NC(=O)Nc1nc2nc(NCCCN3CCOCC3)ncc2cc1-c1c(Cl)cccc1Cl [Example 59, 1-tert-Butyl-3-[6-(2,6-dichlorophenyl)-2-(3-morpholin-4-yl-propylamino)-pyrido[2,3-d]pyrimidin-7-yl]-urea] | 838 nM | 72 nM | 85 nM | 1190 nM
CCNC(=O)Nc1nc2nc(NCCCN(CC)CC)ncc2cc1-c1c(Cl)cccc1Cl [Example 112, 1-[6-(2,6-Dichlorophenyl)-2-(3-diethylamino-propyl-amino)-pyrido[2,3-d]pyrimidin-7-yl]-3-ethyl-urea] | 1260 nM | 128 nM | 77 nM | 1080 nM
CCNC(=O)Nc1nc2nc(NCCCN(CC)CC)ncc2cc1-c1c(C)cccc1C [Example 115] | 2630 nM | 1240 nM | 24 nM | 5130 nM
CN(C)CCCNc1ncc2cc(-c3c(Cl)cccc3Cl)c(NC(=O)NC(C)(C)C)nc2n1 [Example 28, 1-tert-Butyl-3-[6-(2,6-dichlorophenyl)-2-(3-dimethylamino-propylamino)-pyrido[2,3-d]pyrimidin-7-yl]-urea] | 676 nM | 75 nM | 117 nM | 1380 nM
CCN(CC)CCCNc1ncc2cc(-c3c(Cl)cccc3Cl)c(NC(=O)NC(C)C)nc2n1 [Example 113, 1-[6-(2,6-Dichlorophenyl)-2-(3-diethylamino-propyl-amino)-pyrido[2,3-d]pyrimidin-7-yl]-3-isopropyl-urea] | 1090 nM | 77 nM | 78 nM | 1100 nM
CCN(CC)CCNc1ncc2cc(-c3c(Cl)cccc3Cl)c(NC(=O)NC(C)(C)C)nc2n1 [Example 66, 1-tert-Butyl-3-[6-(2,6-dichlorophenyl)-2-(2-diethyl-amino-ethylamino)-pyrido[2,3-d]pyrimidin-7-yl]-urea] | 5190 nM | 1280 nM | 3420 nM | 5290 nM
CCN(CC)CCCNc1ncc2cc(-c3c(C)cccc3C)c(NC(=O)NC(C)(C)C)nc2n1 [Example 116, 1-tert-Butyl-3-[2-(3-diethylamino-propylamino)-6-(2,6-dimethyl-phenyl)-pyrido[2,3-d]pyrimidin-7-yl]-urea] | 804 nM | 335 nM | 98 nM | 910 nM
